# Laboratory results as given in PubChem BioAssay AID256 (DTP/NCI, 2004).
# Several values for one entry are separate records, joined by “and”; a condition that tells them apart may be missing. Identical values can stand only once. Toxic doses and inconclusive results are not listed.
# System: CD2F1 mice, L1210 leukemia ip, survival T/C
# Assay: NCI In Vivo Anticancer Drug Screen. Data for tumor model L1210 Leukemia (intraperitoneal) in CD2F1 (CDF1) mice
# Settings: endpoint: mean survival time, higher = longer survival
# Outline: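 In this screen, transplantable tumors were grown in mice given either the compound or its vehicle. Results were expressed as the treated measurement relative to the control measurement.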
# [1] = dose: 100.0 mg/kg/injection, schedule: Q04DX003 (ip), vehicle: saline with Tween-80
# [2] = dose: 200.0 mg/kg/injection, schedule: Q04DX003 (ip), vehicle: saline with Tween-80
# [3] = dose: 400.0 mg/kg/injection, schedule: Q04DX003 (ip), vehicle: saline with Tween-80
# [4] = dose: 100.0 mg/kg/injection, schedule: Q01DX009 (ip), vehicle: saline with Tween-80
# [5] = dose: 200.0 mg/kg/injection, schedule: Q01DX009 (ip), vehicle: saline with Tween-80
# [6] = dose: 400.0 mg/kg/injection, schedule: Q01DX009 (ip), vehicle: saline with Tween-80
# [7] = dose: 50.0 mg/kg/injection, schedule: Q01DX009 (ip), vehicle: saline
# [8] = dose: 100.0 mg/kg/injection, schedule: Q01DX009 (ip), vehicle: saline
# [9] = dose: 200.0 mg/kg/injection, schedule: Q01DX009 (ip), vehicle: saline
# [10] = dose: 100.0 mg/kg/injection, schedule: Q04DX002 (ip), vehicle: saline with Tween-80
# [11] = dose: 200.0 mg/kg/injection, schedule: Q04DX002 (ip), vehicle: saline with Tween-80
# [12] = dose: 400.0 mg/kg/injection, schedule: Q04DX002 (ip), vehicle: saline with Tween-80
# [13] = dose: 50.0 mg/kg/injection, schedule: Q01DX009 (ip), vehicle: saline with Tween-80
# [14] = dose: 75.0 mg/kg/injection, schedule: Q01DX001 (ip), vehicle: saline
# [15] = dose: 150.0 mg/kg/injection, schedule: Q01DX001 (ip), vehicle: saline
# [16] = dose: 100.0 mg/kg/injection, schedule: Q01DX001 (ip), vehicle: saline
# [17] = dose: 200.0 mg/kg/injection, schedule: Q01DX001 (ip), vehicle: saline
# [18] = dose: 400.0 mg/kg/injection, schedule: Q01DX001 (ip), vehicle: saline
structure (smiles),measurement,setting,value
COc1ccc(/C=C(/C#N)c2ccccc2)cc1,T/C,[1],95 % of control
same,T/C,[2],93 % of control
same,T/C,[3],90 % of control
CCCCN(CCCC)CC(O)c1cc(-c2ccc(Cl)cc2)nc2c(OC)ccc(OC)c12 (stereo not given),T/C,[1],98 % of control
same,T/C,[2],102 % of control
same,T/C,[3],98 % of control
c1ccc(C(c2ccccc2)[n+]2ccccc2)cc1,T/C,"dose: 5.0 mg/kg/injection, schedule: Q01DX009 (ip), vehicle: saline",98 % of control
same,T/C,"dose: 5.0 mg/kg/injection, schedule: Q04DX003 (ip), vehicle: saline",104 % of control
same,T/C,"dose: 10.0 mg/kg/injection, schedule: Q01DX009 (ip), vehicle: saline",102 % of control
same,T/C,"dose: 10.0 mg/kg/injection, schedule: Q04DX003 (ip), vehicle: saline",103 % of control
same,T/C,"dose: 20.0 mg/kg/injection, schedule: Q04DX003 (ip), vehicle: saline",109 % of control
CN(C)CCCNc1c2ccccc2nc2cccc([N+](=O)[O-])c12,T/C,"dose: 0.2 mg/kg/injection, schedule: Q04DX002 (ip), vehicle: saline + alcohol",103 % of control
same,T/C,"dose: 0.4 mg/kg/injection, schedule: Q04DX002 (ip), vehicle: saline + alcohol",103 % of control
same,T/C,"dose: 0.8 mg/kg/injection, schedule: Q04DX002 (ip), vehicle: saline + alcohol",100 % of control
O=C(CNC(=O)c1ccccc1)N/N=C/Cc1ccccc1,T/C,[4],97 % of control
same,T/C,[5],104 % of control
same,T/C,[6],104 % of control
CNC(=S)NNc1ccc(Cl)cc1,T/C,"dose: 12.5 mg/kg/injection, schedule: Q01DX009 (ip), vehicle: other",96 % of control
same,T/C,"dose: 25.0 mg/kg/injection, schedule: Q01DX009 (ip), vehicle: other",94 % of control
same,T/C,"dose: 50.0 mg/kg/injection, schedule: Q01DX009 (ip), vehicle: other",93 % of control
same,T/C,"dose: 100.0 mg/kg/injection, schedule: Q01DX009 (ip), vehicle: other",104 % of control
CCOC(=O)CO,T/C,[7],104 % of control
same,T/C,[8],93 % of control
same,T/C,[9],101 % of control
COc1ccc(-n2cnc3c(=O)[nH]cnc32)cc1,T/C,[10],86 % of control
same,T/C,[11],90 % of control
same,T/C,[12],86 % of control
CCC(C)OC(=O)CCl (stereo not given),T/C,"dose: 75.0 mg/kg/injection, schedule: Q01DX001 (ip), vehicle: other",97 % of control
same,T/C,"dose: 150.0 mg/kg/injection, schedule: Q01DX001 (ip), vehicle: other",96 % of control
O=C1OC(c2ccccc2)(C2(c3ccccc3)OC(=O)c3ccccc32)c2ccccc21 (stereo not given),T/C,[1],89 % of control
Nc1ccccc1C(=O)O,T/C,"dose: 100.0 mg/kg/injection, schedule: Q01DX001 (ip), vehicle: saline with Tween-80",97 % of control
same,T/C,"dose: 200.0 mg/kg/injection, schedule: Q01DX001 (ip), vehicle: saline with Tween-80",100 % of control
same,T/C,"dose: 400.0 mg/kg/injection, schedule: Q01DX001 (ip), vehicle: saline with Tween-80",100 % of control
c1ccc2c(c1)Nc1ccncc1S2,T/C,[1],94 % of control
same,T/C,[2],96 % of control
same,T/C,[3],112 % of control
Cc1ccc(N=Cc2cc(I)cc(I)c2O)cc1.Cc1ccc(N=Cc2cc(I)cc(I)c2O)cc1.[Co],T/C,"dose: 50.0 mg/kg/injection, schedule: Q04DX003 (ip), vehicle: saline",87 % of control
same,T/C,"dose: 100.0 mg/kg/injection, schedule: Q04DX003 (ip), vehicle: saline",104 % of control
same,T/C,"dose: 200.0 mg/kg/injection, schedule: Q04DX003 (ip), vehicle: saline",96 % of control
O=C(CCBr)c1ccc(Cl)cc1,T/C,"dose: 100.0 mg/kg/injection, schedule: Q01DX009 (ip), vehicle: saline sonified",97 % of control
O=C1CCC(=O)N1CCC1=NCCc2cc(OCc3ccccc3)ccc21,T/C,[4],101 % of control
same,T/C,[1],102 % of control
same,T/C,[5],94 % of control
same,T/C,[2],94 % of control
same,T/C,[6],97 % of control
same,T/C,[3],90 % of control
Nc1ccn(C2OC(COP(=O)(O)Oc3ccccc3)C(O)C2O)c(=O)n1 (stereo not given),T/C,"dose: 12.5 mg/kg/injection, schedule: Q01DX009 (ip), vehicle: suspension in saline",162 % of control
same,T/C,"dose: 25.0 mg/kg/injection, schedule: Q01DX009 (ip), vehicle: suspension in saline",194 % of control
same,T/C,"dose: 50.0 mg/kg/injection, schedule: Q01DX009 (ip), vehicle: suspension in saline",202 % of control
same,T/C,"dose: 100.0 mg/kg/injection, schedule: Q01DX009 (ip), vehicle: suspension in saline",223 % of control
O=C(COc1ccc(Cl)cc1)C1CSc2c(Cl)ccc(Cl)c21 (stereo not given),T/C,[1],92 % of control
same,T/C,[2],98 % of control
same,T/C,[3],101 % of control
CCCC1CC[N-]CC1.CCCC1CC[N-]CC1.[Cl][Pt+2]([Cl])([Cl])[Cl],T/C,"dose: 12.5 mg/kg/injection, schedule: Q01DX009 (ip), vehicle: saline sonified",114 % of control
same,T/C,"dose: 25.0 mg/kg/injection, schedule: Q04DX003 (ip), vehicle: saline with Tween-80",98 % of control
COc1cc(/C=N/NC(=O)CNC(=O)NCc2ccco2)ccc1O,T/C,[13],92 % of control
same,T/C,[4],92 % of control
same,T/C,[5],92 % of control
Cc1ccc(N2CC=C(c3ccccc3)OP2(=O)N(CCCl)CCCl)cc1 (stereo not given),T/C,"dose: 31.25 mg/kg/injection, schedule: Q01DX001 (ip), vehicle: saline",100 % of control
same,T/C,"dose: 62.5 mg/kg/injection, schedule: Q01DX001 (ip), vehicle: saline",102 % of control
same,T/C,"dose: 125.0 mg/kg/injection, schedule: Q01DX001 (ip), vehicle: saline",100 % of control
same,T/C,"dose: 250.0 mg/kg/injection, schedule: Q01DX001 (ip), vehicle: saline",100 % of control
same,T/C,"dose: 500.0 mg/kg/injection, schedule: Q01DX001 (ip), vehicle: saline",100 % of control
Cc1cc2sc(C)[n+](CCCOS(=O)(=O)[O-])c2cc1C,T/C,[14],104 % of control
same,T/C,[15],104 % of control
same,T/C,"dose: 300.0 mg/kg/injection, schedule: Q01DX001 (ip), vehicle: saline",96 % of control
CN(C)CCSCC(=O)N1c2ccccc2Sc2ccc(Cl)cc21,T/C,[13],103 % of control
same,T/C,[4],101 % of control
same,T/C,[1],98 % of control
same,T/C,[2],98 % of control
COC(=O)/C=C/c1ccc(O)cc1,T/C,"dose: 100.0 mg/kg/injection, schedule: Q01DX001 (ip), vehicle: saline sonified",102 % of control
same,T/C,[10],101 % of control
same,T/C,"dose: 200.0 mg/kg/injection, schedule: Q01DX001 (ip), vehicle: saline sonified",102 % of control
same,T/C,[11],101 % of control
same,T/C,"dose: 400.0 mg/kg/injection, schedule: Q01DX001 (ip), vehicle: saline sonified",102 % of control
same,T/C,[12],96 % of control
COc1cccc2c1C(=O)c1c(O)c3c(c(O)c1C2=O)C[C@@](O)(C(=O)COC(=O)c1cccnc1)C[C@@H]3OC1CC(N)C(O)C(C)O1 (stereo not given in full),T/C,"dose: 0.25 mg/kg/injection, schedule: Q01DX009 (ip), vehicle: water",104 % of control
same,T/C,"dose: 0.4 mg/kg/injection, schedule: Q01DX009 (ip), vehicle: saline with Tween-80",120 % of control
same,T/C,"dose: 0.5 mg/kg/injection, schedule: Q01DX009 (ip), vehicle: water",109 % of control
same,T/C,"dose: 1.0 mg/kg/injection, schedule: Q01DX009 (ip), vehicle: water",122 % of control
same,T/C,"dose: 1.5 mg/kg/injection, schedule: Q01DX009 (ip), vehicle: saline",168 % of control
same,T/C,"dose: 2.0 mg/kg/injection, schedule: Q01DX009 (ip), vehicle: water",120 % of control
same,T/C,"dose: 4.0 mg/kg/injection, schedule: Q01DX009 (ip), vehicle: water",108 % of control
O=C(NCCCl)Nc1ncn[nH]1,T/C,[1],95 % of control
same,T/C,[2],98 % of control
same,T/C,[3],96 % of control
CCOC(=O)NC(S(=O)(=O)O)S(=O)(=O)O,T/C,[16],104 % of control
same,T/C,[17],104 % of control
same,T/C,[18],108 % of control
C[Si](C)(C)O/C=C1/CCOC1=O,T/C,"dose: 12.5 mg/kg/injection, schedule: Q01DX009 (ip), vehicle: saline",97 % of control and 107 % of control
same,T/C,"dose: 25.0 mg/kg/injection, schedule: Q01DX009 (ip), vehicle: saline",106 % of control and 108 % of control
same,T/C,[7],103 % of control and 104 % of control
same,T/C,[8],104 % of control and 106 % of control
same,T/C,[9],105 % of control and 112 % of control
same,T/C,"dose: 400.0 mg/kg/injection, schedule: Q01DX009 (ip), vehicle: saline",113 % of control and 112 % of control
CC(Br)C(=O)c1ccc(OC(=O)c2ccccc2)cc1 (stereo not given),T/C,[16],100 % of control
same,T/C,[17],100 % of control
same,T/C,[18],100 % of control
O=S(=O)(O)O.[Zr],T/C,[14],97 % of control
same,T/C,[15],91 % of control
